Measured values from US10570179B2, “Substituted urea depsipeptide analogs as activators of the CLPP endopeptidase” (priority 2016, dated 2020).
Values after ≈ are worked out from the molar mass of the structure shown. Like-named read-outs stand apart in the source and are kept apart here. Numbered stars: 1 amine (or outer) side, 2 acyl side, 3 side chain; on linkers, the order of the positions; unused ones are H or OH. Bridge positions count the residues as written; N and C are the ends. Square brackets hold non-standard residues; d marks the D form. Peptide text beside a SMILES is read from it. * marks the point of attachment. ξ: configuration not given here. Phe(3,5-Me2) = Cc1cc(C)cc(C[C@H](N)C(=O)O)c1; Phe(3-Me) = Cc1cccc(C[C@H](N)C(=O)O)c1; NH(4-Cl-2-F-phenyl) = Fc1cc(Cl)ccc1N*; Pro(4R-Me) = C[C@H]1CN[C@H](C(=O)O)C1; Hyp = O=C(O)[C@@H]1C[C@@H](O)CN1; NH(4-Me-phenyl) = Cc1ccc(N*)cc1; ξNMeThr = CNC(C(=O)O)[C@@H](C)O; aThr = C[C@H](O)[C@H](N)C(=O)O; Pip = O=C(O)[C@@H]1CCCCN1; CO = O=C([*:1])[*:2]

Assays:
[1] = Plasma pharmacokinetics; format: in vivo, male BALB/c mice; conditions: for Vd: read-out: Vss
[2] = Plasma protein binding, rapid equilibrium dialysis; format: in vitro ADME, mouse
[3] = test system: B. subtilis; test: Minimal inhibitory concentration, microbroth dilution; format: cell-based; conditions: Bacillus subtilis, read-out: Minimal Inhibitory Concentrations (μM) B. subtilis
Procedure, shortened: (§1)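 Following CLSI M7-A7 microbroth dilution, twofold serial dilutions of compound (top final concentration 200 μM) were combined with an equal volume of broth inoculum at about 10^5 cfu/mL. Plates were incubated aerobically at 37 °C overnight, and the MIC was the lowest concentration preventing visible growth.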

[4] = test system: S. pyogenes; test: as above; format: cell-based; conditions: Streptococcus pyogenes, read-out: Minimal Inhibitory Concentrations (μM) S. pyogenes
Procedure, shortened: as §1

[5] = Cytotoxicity assay (CellTiter-Glo cell viability); format: cell-based; conditions: African green monkey
Description: Cytotoxicity was determined by determining the effect of compounds on cell viability. Vero (kidney epithelial cells; ATCC CCL-81) monolayers were trypsinized and 5000 cells/well were seeded (10-15% confluency) into white-wall, flat bottom 96 well microwell plates (Corning) using enriched Dulbecco's Modified Eagle's Medium (Hyclone: DMEM/High Glucose) containing 10% Fetal Bovine Serum (ATCC-30-2020). Plates were incubated overnight at 37° C. in the presence of 5% CO2. Drug-free media was then replaced with media containing serial dilutions of test compound or DMSO carrier. After an additional 72 hours of incubation, viability was indirectly measured using the CellTiter-Glo® Luminescent Cell Viability (Promega) assay. Assay plates were read at peak emission wavelength of 560 nm using a EnVision® Multilabel Plate Reader (Perkin Elmer) or PHERAstar FS Multilabel reader (BMG, Cary, N.C.). The concentration of test compounds that inhibited growth by 50% (IC50 value) was computed using nonlinear regression based fitting of inhibition curves using log [inhibitor] vs. response-variable slope (four parameters)—symmetrical equation, in GraphPad Prism version 6 [GraphPad Software, La Jolla, Calif. USA, www.graphpad.com]. For each experiment, compounds were tested in duplicate. IC50 values presented are the range of two biologically independent experiments.

[6] = Plasma stability assay; format: in vitro ADME, human
Procedure, shortened: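 Compounds at 10 μM final in human or mouse plasma, incubated at 37 °C and sampled at 0, 3, 24 and 48 h in triplicate. Reactions quenched with cold acetonitrile containing warfarin internal standard; parent measured by LC-MS. Half-life from least-squares first-order fit.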

[7] = test system: S. pneumoniae; test: Minimal inhibitory concentration, microbroth dilution; format: cell-based; conditions: Streptococcus pneumoniae; MIC; read-out: Minimal Inhibitory Concentrations (μM) S. pneumoniae
Procedure, shortened: as §1

[8] = male, BALB/c, mouse, in vivo, iv, 10 mg/kg, Route i.v.
[9] = plasma binding, % Bound, mouse plasma
[10] = Vero cells, 72 hours, read-out: Cytotoxicity IC50
[11] = plasma stability half-life, human plasma, 37° C.
[12] = male, BALB/c, mouse, in vivo, iv

Row | Compound | Vd [1, 8] | Mouse [2, 9] | MIC [3] | MIC [4] | IC50 at 72 h [5, 10] | Human (hr) [6, 11] | Mouse ([2]; mouse, 4 h, 10 μM, pH 7.4) | MIC ([3]; MIC) | MIC ([4]; MIC) | IC50 at 72 h [5] | MIC [7] | Human ([6]; human, 10 μM) | other results
1 | Cc1ccc(NC(=O)N[C@@H](Cc2cccc(C)c2)C(=O)N[C@@H]2C(=O)N3CCC[C@H]3C(=O)N3CCCC[C@H]3C(=O)N[C@@H](C)C(=O)N3C[C@H](C)C[C@H]3C(=O)O[C@H]2C)cc1 [Compound 1, (S)-3-(M-TOLYL)-2-(3-(P-TOLYL)UREIDO)-N-((2R,6S,8AS,14AS,20S,21S,23AS)-2,6,21-TRIMETHYL-5,8,14,19,23-PENTAOXOOCTADECAHYDRO-1H,5H,14H,19H-PYRIDO[2,1-I]DIPYRROLO[2,1-C:2′,1′-L][1]OXA[4,7,10,13]TETRAAZACYCLOHEXADECIN-20-YL)PROPANAMIDE] ({NH(4-Me-phenyl)-CO}-[Phe(3-Me)][aThr]P[Pip]A[Pro(4R-Me)]; ester 2-C) | 0.74 L/kg | 98.9% | 0.313 µM (≈ 0.246 µg/mL) | 0.313 µM (≈ 0.246 µg/mL) | 1.59 ± 0.08 µM | >>48 hr | – | – | – | – | – | – | C^0 ([1]; Route i.v.): 26862.75 ng/mL; AUC(0-inf) ([1]; male, BALB/c, mouse, in vivo, iv, 10 mg/kg, Route i.v., read-out: AUCinf): 7620 ng·h/mL; AUC(0-t) ([1]; male, BALB/c, mouse, in vivo, iv, 10 mg/kg, Route i.v., read-out: AUClast): 7590 ng·h/mL; clearance ([1]; male, BALB/c, mouse, in vivo, iv, 10 mg/kg, Route i.v., read-out: CL): 21.9 mL/min/kg; half-life ([1]; male, BALB/c, mouse, in vivo, iv, 10 mg/kg, Route i.v., read-out: T1/2 (converted)): 0.49 h
2 | Cc1ccc(NC(=O)N[C@@H](Cc2cc(C)cc(C)c2)C(=O)N[C@@H]2C(=O)N3CCC[C@H]3C(=O)N3CCCC[C@H]3C(=O)N[C@@H](C)C(=O)N3C[C@H](C)C[C@H]3C(=O)O[C@H]2C)cc1 [Compound 2, (S)-3-(3,5-DIMETHYLPHENYL)-2-(3-(P-TOLYL)UREIDO)-N-((2R,6S,8AS,14AS,20S,21S,23AS)-2,6,21-TRIMETHYL-5,8,14,19,23-PENTAOXOOCTADECAHYDRO-1H,5H,14H,19H-PYRIDO[2,1-I]DIPYRROLO[2,1-C:2′,1′-L][1]OXA[4,7,10,13]TETRAAZACYCLOHEXADECIN-20-YL)PROPANAMIDE] ({NH(4-Me-phenyl)-CO}-[Phe(3,5-Me2)][aThr]P[Pip]A[Pro(4R-Me)]; ester 2-C) | – | 99.2% | 0.625 µM (≈ 0.5 µg/mL) | > 20 µM | > 100 µM | >>48 hr | – | – | – | – | – | – | –
3 | Cc1cc(C)cc(C[C@H](NC(=O)Nc2ccc(Cl)cc2F)C(=O)N[C@@H]2C(=O)N3CCC[C@H]3C(=O)N3CCCC[C@H]3C(=O)N[C@@H](C)C(=O)N3C[C@H](C)C[C@H]3C(=O)O[C@H]2C)c1 [Compound 4, (S)-2-(3-(4-CHLORO-2-FLUOROPHENYL)UREIDO)-3-(3,5-DIMETHYLPHENYL)-N-((2R,6S,8AS,14AS,20S,21S,23AS)-2,6,21-TRIMETHYL-5,8,14,19,23-PENTAOXOOCTADECAHYDRO-1H,5H,14H,19H-PYRIDO[2,1-I]DIPYRROLO[2,1-C:2′,1′-L][1]OXA[4,7,10,13]TETRAAZACYCLOHEXADECIN-20-YL)PROPANAMIDE] ({NH(4-Cl-2-F-phenyl)-CO}-[Phe(3,5-Me2)][aThr]P[Pip]A[Pro(4R-Me)]; ester 2-C) | – | – | – | – | – | – | 99.8 ± 0.0% | 1.25 µM (≈ 1.05 µg/mL) | 1.25 µM (≈ 1.05 µg/mL) | 11 ± 1.9 µM | – | – | Human (hr) ([6]; human, 10 μM): >>48 hr
4 | Cc1cccc(C[C@H](NC(=O)Nc2ccc(Cl)cc2F)C(=O)N[C@@H]2C(=O)N3CCC[C@H]3C(=O)N(C)C([C@@H](C)O)C(=O)N[C@@H](C)C(=O)N3C[C@H](C)C[C@H]3C(=O)O[C@H]2C)c1 (stereo partly drawn) [Compound 5] ({NH(4-Cl-2-F-phenyl)-CO}-[Phe(3-Me)][aThr]P[ξNMeThr]A[Pro(4R-Me)]; ester 2-C) | – | – | – | – | – | – | 98.6 ± 0.5% | 0.156 µM (≈ 0.129 µg/mL) | 0.078 µM (≈ 0.0646 µg/mL) | > 10 µM | 0.039 µM (≈ 0.0323 µg/mL) | >50 h | –
5 | Cc1cccc(C[C@H](NC(=O)Nc2ccc(Cl)cc2F)C(=O)N[C@@H]2C(=O)N3C[C@H](O)C[C@H]3C(=O)N3CCCC[C@H]3C(=O)N[C@@H](C)C(=O)N3C[C@H](C)C[C@H]3C(=O)O[C@H]2C)c1 [Compound 6, (S)-2-(3-(4-CHLORO-2-FLUOROPHENYL)UREIDO)-N-((2R,6S,8AS,14AS,16R,20S,21S,23AS)-16-HYDROXY-2,6,21-TRIMETHYL-5,8,14,19,23-PENTAOXOOCTADECAHYDRO-1H,5H,14H,19H-PYRIDO[2,1-I]DIPYRROLO[2,1-C:2′,1′-L][1]OXA[4,7,10,13]TETRAAZACYCLOHEXADECIN-20-YL)-3-(M-TOLYL)PROPANAMIDE] ({NH(4-Cl-2-F-phenyl)-CO}-[Phe(3-Me)][aThr][Hyp][Pip]A[Pro(4R-Me)]; ester 2-C) | 1.02 L/kg | – | – | – | – | – | 99.5 ± 0.1% | 0.156 µM (≈ 0.131 µg/mL) | 0.156 µM (≈ 0.131 µg/mL) | 50.5 ± 3.8 µM | 0.039 µM (≈ 0.0328 µg/mL) | >50 h | AUC(0-inf) [1, 12]: 11900 ng·h/mL; AUC(0-t) [1, 12]: 11500 ng·h/mL; C^0 [1, 12]: 34296.43 ng/mL; clearance [1, 12]: 14 mL/min/kg; half-life [1, 12]: 2.82 h
